The values below come from patent US20120213855A1, “DOSAGE FORMS FOR WEAKLY IONIZABLE COMPOUNDS” (CIMA LABS INC., priority 2011, published 2012).

Each structure is given as a SMILES string.

Data set [1] can be described thus: In vitro dissolution in 900 mL DI water, USP type 2 apparatus (Example 3). Type of data set: physicochemical. To be noted: 37° C., 50 rpm, 15 mg meloxicam, when introduced to the dissolution medium. The protocol: Dissolution was performed in 900 mL of DI water. Dissolution studies were conducted in a USP type 2 apparatus (Varian Inc., Cary, N.C.). Paddle speed and bath temperature were set to 50 rpm and 37° C., respectively. Samples (5 mL) were withdrawn at 5, 10, 15, 30, 45, and 60 minutes and analyzed by UV spectroscopic methods at 360 nm (Varian Cary, Australia). Dissolution experiment was performed in duplicates unless otherwise specified.

Data set [2] in a line: In vivo dog study, serum pharmacokinetics by LC/MS/MS (Example 4).
Method: Both formulations were administered orally.
For each formulation 4 or 5 dogs were studied. Prior to administration, the animals were fasted overnight and approximately 2 hours post-dose, the animals had access to regular rations for the remaining portion of the study. The animals were dosed multiple times over the course of the study with at least a two-week recovery period between dosing phases. Each formulation was administered as a single dose, with the intravenous dosages occurring in the cephalic vein.
Blood samples were collected from the cephalic or saphenous veins. The samples were stored at room temperature for about 1 hour or until being processed for serum. The samples were centrifuged at 3200 RPM for 10 minutes at 22-26° C. Serum samples were stored at 4±5° C. until analyzed.
The samples were evaluated using LC/MS/MS.
Data set [3] is described as follows: In vivo human study, pharmacokinetics in healthy volunteers (Example 7).
Method: The study consisted of a total of eighteen healthy adult volunteers (male and female). Testing was conducted over three phases, with a minimum fourteen day washout period between each phase of the study. Test formulation A and C were randomly dosed during phases 1 and 2, while test formulation B was dosed entirely during phase 3. […] Each formulation was administered as a single dose, with approximately 240 mL of room temperature water.
Twenty-seven blood samples per subject per phase were collected at various time points over the course of 96 hours following dosing. Pharmacokinetic sampling occurred within 90 minutes prior to dosing (0 hour) and after dose administration at 0.5, 1, 1.5, 2, 2.5, 3, 3.5, 4, 4.5, 5, 5.5, 6, 6.5, 7, 7.5, 8, 8.5, 9, 9.5, 10, 12, 16, 24, 48, 72, and 96 hours. The samples were stored at room temperature for about 1 hour or until being processed for serum. The samples were centrifuged at 3000 RPM for 10 minutes at 4° C. (±10° C.). Serum samples were stored at −20±10° C. until analyzed.
The samples were evaluated using a validated bioanalytical method and according to the Bioanalytical Laboratory's Standard Operating Procedures and FDA guidelines.

As to `Cc1cnc(NC(=O)C2=C(O)c3ccccc3S(=O)(=O)N2C)s1` [Meloxicam, 4-hydroxy-2-methyl-N-(5-methyl-2-thiazolyl)-2H-1,2-benzothiazine-3-carboxamide-1,1-dioxide], the “meloxicam dissolved in water” value in data set [1] amounted to 12%. Also, the elimination phase entry in data set [2] and in data set [3] was “slow elimination phase” throughout.
